Experimental data from publication PMC3693456 (Bioorganic & medicinal chemistry letters, 2008).

Biological target: CB1 receptor (Rattus norvegicus, UniProt P20272)
Assay type: binding
Details: rat brain membranes, PMSF; for CB1 receptor affinity (in words): qualitative statement

CB1 receptor, sequence (P20272 whole entry): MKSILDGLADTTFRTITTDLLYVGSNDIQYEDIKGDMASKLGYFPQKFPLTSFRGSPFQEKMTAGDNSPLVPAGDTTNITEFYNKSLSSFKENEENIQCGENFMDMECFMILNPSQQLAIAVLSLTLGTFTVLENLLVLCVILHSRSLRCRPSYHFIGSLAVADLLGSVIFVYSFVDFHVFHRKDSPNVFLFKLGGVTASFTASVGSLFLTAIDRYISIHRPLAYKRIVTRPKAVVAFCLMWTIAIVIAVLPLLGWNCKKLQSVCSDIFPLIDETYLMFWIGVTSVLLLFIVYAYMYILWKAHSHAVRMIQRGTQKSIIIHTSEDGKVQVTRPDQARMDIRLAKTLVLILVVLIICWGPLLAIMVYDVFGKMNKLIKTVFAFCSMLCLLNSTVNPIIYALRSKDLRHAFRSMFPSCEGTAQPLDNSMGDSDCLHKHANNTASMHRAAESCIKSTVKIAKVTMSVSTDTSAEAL

| Structure (SMILES) | CB1 receptor affinity (in words) | fold lower CB1 affinity compared to 7d (relative to 7d) |
| --- | --- | --- |
| C[C@H](CO)NC(=O)CCC/C=C\C/C=C\C/C=C\C/C=C\CCCCc1ccco1 [7q] | substantially weaker affinity | – |
| C[C@H](CO)NC(=O)CCC/C=C\C/C=C\C/C=C\C/C=C\CCCCCc1ccccc1 [7e] | – | over 5 fold |
| C[C@H](CO)NC(=O)CCC/C=C\C/C=C\C/C=C\C/C=C\CCCCc1ccc(Br)cc1 [7n] | most potent analog | – |
| C[C@H](CO)NC(=O)CCC/C=C\C/C=C\C/C=C\C/C=C\CCCCc1cccc2ccccc12 [7f] | loss of CB1 receptor affinity | – |
